{"source": "patent US9233983B2", "about": "“Substituted hetero-bicyclic compounds, compositions and medicinal applications thereof” (ADVINUS THERAPEUTICS LIMITED, priority 2012, dated 2016)", "note": "pIC50: −log10 of the molar value.", "data": [{"target": "human Bruton's Tyrosine Kinase (Btk) (Homo sapiens (Human), UniProt Q06187)", "sequence (Q06187 whole entry)": "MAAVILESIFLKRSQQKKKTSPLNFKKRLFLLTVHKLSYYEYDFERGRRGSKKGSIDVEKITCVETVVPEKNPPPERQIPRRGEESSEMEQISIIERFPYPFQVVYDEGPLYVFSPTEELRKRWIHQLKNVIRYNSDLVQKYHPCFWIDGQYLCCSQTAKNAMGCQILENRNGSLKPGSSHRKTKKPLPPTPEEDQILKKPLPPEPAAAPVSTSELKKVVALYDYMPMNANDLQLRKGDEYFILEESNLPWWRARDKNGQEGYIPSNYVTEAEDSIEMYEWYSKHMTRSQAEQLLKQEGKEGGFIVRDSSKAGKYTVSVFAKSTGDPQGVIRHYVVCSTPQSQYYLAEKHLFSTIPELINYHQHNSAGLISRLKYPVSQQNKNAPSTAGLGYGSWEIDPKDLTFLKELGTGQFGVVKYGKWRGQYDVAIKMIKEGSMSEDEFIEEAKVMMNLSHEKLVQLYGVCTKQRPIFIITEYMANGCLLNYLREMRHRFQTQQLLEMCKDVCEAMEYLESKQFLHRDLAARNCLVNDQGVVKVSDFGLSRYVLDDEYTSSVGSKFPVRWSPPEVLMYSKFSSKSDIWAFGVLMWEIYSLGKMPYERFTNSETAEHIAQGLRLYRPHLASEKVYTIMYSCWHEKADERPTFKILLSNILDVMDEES", "experiment": "Recombinant Human Bruton's Tyrosine Kinase (Btk) Inhibition Assay (HTRF KinEASE-TK)", "type": "biochemical", "conditions": "20 ng/ml rhBtk, 77 μM ATP (KM), 1 μM TK-Biotin substrate, 90 min; read-out: hBTK IC50", "values": [{"smiles": "Cc1c(-c2ncnc3[nH]c(-c4cccc(CN5CCNCC5)c4)cc23)cccc1N1CCc2cc(C3CC3)ccc2C1=O", "note": "[Example A-3, 6-cyclopropyl-2-[2-methyl-3-[6-[3-(piperazin-1-ylmethyl)phenyl]-7H-pyrrolo[2,3-d]pyrimidin-4-yl]phenyl]-3,4-dihydroisoquinolin-1-one]", "pIC50": 6.29}, {"smiles": "Cc1c(-c2ncnc3[nH]c(-c4cccc(CN5CCNCC5)c4)cc23)cccc1N1CCOc2cc(C3CC3)ccc2C1=O", "note": "[Example A-4, 8-cyclopropyl-4-[2-methyl-3-[6-[3-(piperazin-l-ylmethyl)phenyl]-7H-pyrrolo[2,3-d]pyrimidin-4-yl]phenyl]-2.3-dihydro-l,4-benzoxazepin-5-one]", "pIC50": 6.40}, {"smiles": "Cc1c(-c2ncnc3[nH]c(-c4ccc(CN5CCOCC5)cc4)cc23)cccc1N1CCOc2cc(C3CC3)ccc2C1=O", "note": "[Example A-5, 8-cyclopropyl-4-[2-methyl-3-[6-[4-(morpholinomethyl)phenyl]-7H-pyrrolo[2,3-d]pyrimidin-4-yl]phenyl]-2,3-dihydro-1,4-benzoxazepin-5-one]", "pIC50": 7.04}, {"smiles": "Cc1c(-c2ncnc3[nH]c(-c4ccc(CN5CCOCC5)cc4)cc23)cccc1N1CCc2cc(C3CC3)ccc2C1=O", "note": "[Example A-6, 6-cyclopropyl-2-[2-methyl-3-[6-[4-(morpholinomethyl)phenyl]-7H-pyrrolo[2,3-d]pyrimidin-4-yl]phenyl]-3,4-dihydroisoquinolin-1-one]", "pIC50": 6.84}, {"smiles": "Cc1c(-c2ncnc3[nH]c(-c4cccc(CN5CCOCC5)c4)cc23)cccc1N1CCOc2cc(C3CC3)ccc2C1=O", "note": "[Example A-7, 8-cyclopropyl-4-[2-methyl-3-[6-[3-(morpholinomethyl)phenyl]-7H-pyrrolo[2,3-d]pyrimidin-4-yl]phenyl]-2,3-dihydro-1,4-benzoxazepin-5-one]", "pIC50": 6.38}, {"smiles": "Cc1c(-c2ncnc3[nH]c(-c4cccc(CN5CCOCC5)c4)cc23)cccc1N1CCc2cc(C3CC3)ccc2C1=O", "note": "[Example A-8, 6-cyclopropyl-2-[2-methyl-3-[6-[3-(morpholinomethyl)phenyl]-7H-pyrrolo[2,3-d]pyrimidin-4-yl]phenyl]-3,4-dihydroisoquinolin-1-one]", "pIC50": 6.08}, {"smiles": "Cc1c(-c2ncnc3[nH]c(-c4ccc(CN5CCN(C)CC5)cc4)cc23)cccc1N1CCc2cc(C3CC3)ccc2C1=O", "note": "[Example B-3, 6-cyclopropyl-2-[2-methyl-3-[6-[4-[(4-methylpiperazin-1-yl)methyl]phenyl]-7H-pyrrolo[2,3-d]pyrimidin-4-yl]phenyl]-3,4-dihydroisoquinolin-1-one]", "pIC50": 7.52}, {"smiles": "CCN1CCN(Cc2ccc(-c3cc4c(-c5cccc(N6CCc7cc(C8CC8)ccc7C6=O)c5C)ncnc4[nH]3)cc2)CC1", "note": "[Example B-4, 6-cyclopropyl-2-[3-[6-[4-[(4-ethylpiperazin-1-yl)methyl]phenyl]-7H-pyrrolo[2,3-d]pyrimidin-4-yl]-2-methyl-phenyl]-3,4-dihydroisoquinolin-1-one]", "pIC50": 7.39}, {"smiles": "CN1CCN(Cc2ccc(-c3cc4c(-c5cccc(-n6ccc7cc(C8CC8)ccc7c6=O)c5CO)ncnc4[nH]3)cc2)CC1", "note": "[Example B-8, 6-cyclopropyl-2-[2-(hydroxymethyl)-3-[6-[4-[(4-methylpiperazin-1-yl)methyl]phenyl]-7H-pyrrolo[2,3-d]pyrimidin-4-yl]phenyl]isoquinolin-1-one]", "pIC50": 8.15}, {"smiles": "Cc1c(-c2ncnc3[nH]c(-c4ccc(CN5CCN(C)CC5)cc4)cc23)cccc1-n1ccc2cc(C3CC3)ccc2c1=O", "note": "[Example B-9, 6-cyclopropyl-2-[2-methyl-3-[6-[4-[(4-methylpiperazin-l-yl)methyl]phenyl]-7H-pyrrolo[2,3-d]pyrimidin-4-yl]phenyl]isoquinolin-1-one]", "pIC50": 8.00}, {"smiles": "Cc1c(-c2ncnc3[nH]c(-c4ccc(CN5CCNC(=O)C5)cc4)cc23)cccc1N1CCc2cc(C3CC3)ccc2C1=O", "note": "[Example B-11, 6-cyclopropyl-2-[2-methyl-3-[6-[4-[(3-oxopiperazin-1-yl)methyl]phenyl]-7H-pyrrolo[2,3-d]pyrimidin-4-yl]phenyl]-3,4-dihydroisoquinolin-1-one]", "pIC50": 6.60}, {"smiles": "Cc1c(-c2ncnc3[nH]c(-c4ccc(CN5CCC(C)(O)CC5)cc4)cc23)cccc1N1CCc2cc(C3CC3)ccc2C1=O", "note": "[Example B-12, 6-cyclopropyl-2-[3-[6-[4-[(4-hydroxy-4-methyl-1-piperidyl)methyl]phenyl]-7H-pyrrolo[2,3-d]pyrimidin-4-yl]-2-rnethyl-phenyl]-3,4-dihydroisoquinolin-1-one]", "pIC50": 6.94}, {"smiles": "Cc1c(-c2ccnc3[nH]c(-c4ccc(CN5CCN(C)CC5)cc4)cc23)cccc1N1CCOc2cc(C3CC3)ccc2C1=O", "note": "[Example B-15, 8-cyclopropyl-4-[2-methyl-3-[2-[4-[(4-methylpiperazin-1-yl)methyl]phenyl]-1H-pyrrolo[2,3-b]pyridin-4-yl]phenyl]-2,3-dihydro-1,4-benzoxazepin-5-one]", "pIC50": 6.99}, {"smiles": "CN1CCN(Cc2ccc(-c3cc4c(-c5cccc(N6CCOc7cc(C8CC8)ccc7C6=O)c5CO)ccnc4[nH]3)c(F)c2)CC1", "note": "[Example B-18, 8-cyclopropyl-4-[3-[2-[2-fluoro-4-[(4-methylpiperazin-1-yl)methyl]phenyl]-1H-pyrrolo[2,3-b]pyridin-4-yl]-2-(hydroxymethyl)phenyl]-2,3-dihydro-1,4-benzoxazepin-5-one]", "pIC50": 8.05}, {"smiles": "Cc1c(-c2ccnc3[nH]c(-c4ccc(CN5CCN(C)CC5)c(F)c4)cc23)cccc1N1CCOc2cc(C3CC3)ccc2C1=O", "note": "[Example B-19, 8-cyclopropyl-4-[3-[2-[3-fluoro-4-[(4-methylpiperazin-1-yl)methyl]phenyl]-lH-pyrrolo[2,3-b]pyridin-4-yl]-2-methyl-phenyl]-2,3-dihydro-1,4-benzoxazepin-5-one]", "pIC50": 6.72}, {"smiles": "CCN1CCN(Cc2ccc(-c3cc4c(-c5cccc(N6CCOc7cc(C8CC8)ccc7C6=O)c5CO)ccnc4[nH]3)cn2)CC1", "note": "[Example B-21, 8-cyclopropyl-4-[3-[2-[6-[(4-ethylpiperazin-1-yl)methyl]-3-pyridyl]-1H-pyrrolo[2,3-b]pyridin-4-yl]-2-(hydroxymethyl)phenyl]-2,3-dihydro-1,4-benzoxazepin-5-one]", "pIC50": 8.10}, {"smiles": "CN1CC=C(c2ccc(-c3cc4c(-c5cccc(N6CCOc7cc(C8CC8)ccc7C6=O)c5CO)ccnc4[nH]3)cc2)CC1", "note": "[Example C-4, 8-cyclopropyl-4-[2-(hydroxymethyl)-3-[2-[4-(1-methyl-3,6-dihydro-2H-pyridin-4-yl)phenyl]-1H-pyrrolo[2,3-b]pyridin-4-yl]phenyl]-2,3-dihydro-1,4-benzoxazepin-5-one]", "pIC50": 7.96}, {"smiles": "Cc1c(-c2ncnc3[nH]c(-c4cnn(C5CCN(C)CC5)c4)cc23)cccc1N1CCOc2cc(C3CC3)ccc2C1=O", "note": "[Example D-2, 8-cyclopropyl-4-[2-methyl-3-[6-[1-(1-methyl-4-piperidyl)pyrazol-4-yl]-7H-pyrrolo[2,3-d]pyrimidin-4-yl]phenyl]-2,3-dihydro-1,4-benzoxazepin-5-one]", "pIC50": 7.89}, {"smiles": "Cc1nn(C2CN(C)C2)cc1-c1cc2c(-c3cccc(N4CCOc5cc(C6CC6)ccc5C4=O)c3CO)ccnc2[nH]1", "note": "[Example E-1, 8-cyclopropyl-4-[2-(hydroxymethyl)-3-[2-[3-methyl-1-(1-methylazetidin-3-yl)pyrazol-4-yl]-1H-pyrrolo[2,3-b]pyridin-4-yl]phenyl]-2,3-dihydro-1,4-benzoxazepin-5-one]", "pIC50": 8.05}]}]}
